Values joined by “and” are separate entries in the source; they are usually repeats but may differ in a detail not shown here. Equal entries are not always repeated.

Here are results for 16 compounds from paper PMC9971899, “Identification and structural analysis of a carbohydrate-binding module specific to alginate, a representative of a new family, CBM96” (The Journal of Biological Chemistry, 2022).

Experiment [1] deals with T1, TM6-N4 (Defluviitalea phaphyphila, UniProt A0A4Y5UXE1).
T1 construct: gene Dp0100; TM6-N4 truncation of Dp0100 (187 amino acids, within TM6 segment 1020-1446, without CBM35), His tag, produced in E. coli BL21 (DE3); monomer, Ca2+ in crystal structure
Description: Isothermal titration calorimetry (MicroCal PEAQ-ITC) of 20 uM TM6-N4 with 200 uM oligoalginate in 20 mM Tris-HCl pH 7.0 without NaCl at 25 °C, one-site binding model, triplicate for most ligands. The following applies: SD, n = 3. How it is done: (§1) To characterize the binding of TM6-N4 to alginate, isothermal titration calorimetry (ITC) experiments were carried out at 25 °C and pH 7.0, with alginate and oligoalginate standards including G3, G4, G5, G6, G7, M3, M5, M6, and M7 as substrate and TM6-N4 as the enzyme. […] Nevertheless, G3 produced a profile of CBM–ligand interaction (Fig. 2A). It is thus likely that the binding sites of TM6-N4 required at least three uronic acid units to yield stable binding complexes. […] These discrepancies may reflect the fact that one alginate chain has accommodated several protein molecules and the fact of the thermodynamic instability of the long alginate chain.
(§2) Figure 2 Thermograms (upper panels) and binding isotherms with theoretical fits (lower panels) obtained for the binding. G3 (A), G4 (B), G5 (C), G6 (D), G7 (E), M3 (F), M5 (G), M6 (H), M7 (I), and alginate (J) to TM6-N4. The buffer used was 20 mM Tris–HCl buffer, pH 7.0. Protein concentration was 20 μM for TM6-N4.
(§3) The proteins were dialyzed extensively against buffer with 20 mM Tris–HCl (pH 7.0) without NaCl and adjusted concentration to 20 μM, and the oligosaccharide ligands (purity ≥95%; Qingdao BZ Oligo Biotech Co Ltd) or alginate ligands (viscosity >0.02 Pa·s, 1% alginate in H2O at 25 °C) were dissolved in the same buffer to minimize heats of dilution with a concentration of 200 μM. To avoid bubble formation, all the samples were degassed by centrifugation at 12,000 rpm/10 min. Calorimetric titration was performed with MicroCal PEAQ-ITC (Malvern Panalytical). During a titration experiment, the protein sample was stirred at a speed of 750 rpm and kept a constant temperature of 25 °C, and the titration needle was filled with 80 μl oligosaccharide or alginate ligand. Titrations were completed after 19 injections (each 3 μl) at an interval of 150 s. The data were analyzed by using the one-site binding model in the MicroCal PEAQ-ITC Analysis software. The fitted data yielded the dissociation constant (Kd), the number of binding sites on the protein (n), and the enthalpy of binding (ΔH). Other thermodynamic parameters can be calculated by using the standard thermodynamic equation ΔG = −RTln Ka = ΔH-TΔS. Titrations were carried out in triplicate for most ligands, and the errors are the SD of the mean of these replicates.

Experiment [2] concerns TM6-N4. Description: Isothermal titration calorimetry of alginate and oligoalginate binding to TM6-N4. Also on record: species or system Defluviitalea phaphyphila. The following applies: ITC, 25 °C, pH 7.0; for TΔS: calculated from ΔG = ΔH-TΔS; for ΔG (binding free energy change): calculated from ΔG = −RTln Ka. How it is done:
as §1, §2, §3

Turning to `O=C(O)[C@@H]1O[C@@H](O[C@H]2[C@H](O)[C@H](O)[C@H](O[C@H]3[C@H](O)[C@H](O)C(O)O[C@H]3C(=O)O)O[C@H]2C(=O)O)[C@@H](O)[C@@H](O)[C@@H]1O` (stereo partly drawn) [G3, alpha-L-guluronate trisaccharide (triguluronate)], the Kd (commonly the constant that tells how readily two partners part at equilibrium) on TM6-N4 [1] was 3100 ± 100 nM.
As to `O=C(O)[C@@H]1O[C@@H](O[C@H]2[C@H](O)[C@H](O)[C@H](O[C@H]3[C@H](O)[C@H](O)C(O)O[C@H]3C(=O)O)O[C@H]2C(=O)O)[C@@H](O)[C@@H](O)[C@@H]1O` (some centres unmarked) [G3], in the experiment on TM6-N4 [2], the ΔH is -15.1 ± 3.3 kcal/mol; the TΔS is -7.6 kcal/mol; the “ΔG (binding free energy change)” value is -7.5 kcal/mol and -7.5 ± 0.1 kcal/mol.
`O=C(O)[C@@H]1O[C@@H](O[C@H]2[C@H](O)[C@H](O)[C@H](O[C@H]3[C@H](O)[C@H](O)[C@H](O[C@H]4[C@H](O)[C@H](O)C(O)O[C@H]4C(=O)O)O[C@H]3C(=O)O)O[C@H]2C(=O)O)[C@@H](O)[C@@H](O)[C@@H]1O` (stereo partly drawn) [G4, alpha-L-guluronate tetrasaccharide (tetraguluronate)] gave a Kd on TM6-N4 [1] of 600 ± 100 nM.
On to `O=C(O)[C@@H]1O[C@@H](O[C@H]2[C@H](O)[C@H](O)[C@H](O[C@H]3[C@H](O)[C@H](O)[C@H](O[C@H]4[C@H](O)[C@H](O)C(O)O[C@H]4C(=O)O)O[C@H]3C(=O)O)O[C@H]2C(=O)O)[C@@H](O)[C@@H](O)[C@@H]1O` (some centres unmarked) [G4], for which, in the experiment on TM6-N4 [2], the ΔH is -7.3 ± 0.2 kcal/mol; the TΔS is reported as 1.1 kcal/mol; the “ΔG (binding free energy change)” value was -8.4 kcal/mol and -8.4 ± 0.1 kcal/mol.
Regarding `O=C(O)[C@@H]1O[C@@H](O[C@H]2[C@H](O)[C@H](O)[C@H](O[C@H]3[C@H](O)[C@H](O)[C@H](O[C@H]4[C@H](O)[C@H](O)[C@H](O[C@H]5[C@H](O)[C@H](O)C(O)O[C@H]5C(=O)O)O[C@H]4C(=O)O)O[C@H]3C(=O)O)O[C@H]2C(=O)O)[C@@H](O)[C@@H](O)[C@@H]1O` (stereo partly drawn) [G5, alpha-L-guluronate pentasaccharide (pentaguluronate)], the affinity at TM6-N4 [1], expressed as Kd, was 500 ± 100 nM.
Turning to `O=C(O)[C@@H]1O[C@@H](O[C@H]2[C@H](O)[C@H](O)[C@H](O[C@H]3[C@H](O)[C@H](O)[C@H](O[C@H]4[C@H](O)[C@H](O)[C@H](O[C@H]5[C@H](O)[C@H](O)C(O)O[C@H]5C(=O)O)O[C@H]4C(=O)O)O[C@H]3C(=O)O)O[C@H]2C(=O)O)[C@@H](O)[C@@H](O)[C@@H]1O` (some centres unmarked) [G5], in the experiment with TM6-N4 [2], the ΔH is -12.3 ± 0.4 kcal/mol; the TΔS is -3.6 kcal/mol; the “ΔG (binding free energy change)” value is -8.6 kcal/mol and -8.6 ± 0.1 kcal/mol.
Regarding `O=C(O)[C@@H]1O[C@@H](O[C@H]2[C@H](O)[C@H](O)[C@H](O[C@H]3[C@H](O)[C@H](O)[C@H](O[C@H]4[C@H](O)[C@H](O)[C@H](O[C@H]5[C@H](O)[C@H](O)[C@H](O[C@H]6[C@H](O)[C@H](O)C(O)O[C@H]6C(=O)O)O[C@H]5C(=O)O)O[C@H]4C(=O)O)O[C@H]3C(=O)O)O[C@H]2C(=O)O)[C@@H](O)[C@@H](O)[C@@H]1O` (stereo partly drawn) [G6, alpha-L-guluronate hexasaccharide (hexaguluronate)], the affinity on TM6-N4 [1], expressed as Kd, was 20 ± 20 nM.
`O=C(O)[C@@H]1O[C@@H](O[C@H]2[C@H](O)[C@H](O)[C@H](O[C@H]3[C@H](O)[C@H](O)[C@H](O[C@H]4[C@H](O)[C@H](O)[C@H](O[C@H]5[C@H](O)[C@H](O)[C@H](O[C@H]6[C@H](O)[C@H](O)C(O)O[C@H]6C(=O)O)O[C@H]5C(=O)O)O[C@H]4C(=O)O)O[C@H]3C(=O)O)O[C@H]2C(=O)O)[C@@H](O)[C@@H](O)[C@@H]1O` (some centres unmarked) [G6]: in the experiment on TM6-N4 [2], the ΔH is -8.6 ± 0.4 kcal/mol; the TΔS is reported as 1.9 kcal/mol; the “ΔG (binding free energy change)” value is -10.5 kcal/mol and -10.5 ± 0.1 kcal/mol.
On to `O=C(O)[C@@H]1O[C@@H](O[C@H]2[C@H](O)[C@H](O)[C@H](O[C@H]3[C@H](O)[C@H](O)[C@H](O[C@H]4[C@H](O)[C@H](O)[C@H](O[C@H]5[C@H](O)[C@H](O)[C@H](O[C@H]6[C@H](O)[C@H](O)[C@H](O[C@H]7[C@H](O)[C@H](O)C(O)O[C@H]7C(=O)O)O[C@H]6C(=O)O)O[C@H]5C(=O)O)O[C@H]4C(=O)O)O[C@H]3C(=O)O)O[C@H]2C(=O)O)[C@@H](O)[C@@H](O)[C@@H]1O` (stereo partly drawn) [G7, alpha-L-guluronate heptasaccharide (heptaguluronate)], for which binding on TM6-N4 [1] was characterised by a dissociation constant (Kd) of 300 ± 70 nM.
Take `O=C(O)[C@@H]1O[C@@H](O[C@H]2[C@H](O)[C@H](O)[C@H](O[C@H]3[C@H](O)[C@H](O)[C@H](O[C@H]4[C@H](O)[C@H](O)[C@H](O[C@H]5[C@H](O)[C@H](O)[C@H](O[C@H]6[C@H](O)[C@H](O)[C@H](O[C@H]7[C@H](O)[C@H](O)C(O)O[C@H]7C(=O)O)O[C@H]6C(=O)O)O[C@H]5C(=O)O)O[C@H]4C(=O)O)O[C@H]3C(=O)O)O[C@H]2C(=O)O)[C@@H](O)[C@@H](O)[C@@H]1O` (some centres unmarked) [G7]: in the experiment on TM6-N4 [2], the ΔH is -14.2 ± 0.4 kcal/mol; the TΔS was -5.4 kcal/mol; the “ΔG (binding free energy change)” value was -8.9 kcal/mol and -8.9 ± 0.1 kcal/mol.
On to `O=C(O)[C@H]1O[C@@H](O[C@H]2[C@H](O)[C@H](O)[C@H](O[C@H]3[C@H](O)[C@H](O)[C@H](O[C@H]4[C@H](O)[C@H](O)[C@H](O[C@H]5[C@H](O)[C@H](O)C(O)O[C@@H]5C(=O)O)O[C@@H]4C(=O)O)O[C@@H]3C(=O)O)O[C@@H]2C(=O)O)[C@@H](O)[C@@H](O)[C@@H]1O` (stereo partly drawn) [M5, mannuronate pentasaccharide (beta-D-mannuronate pentasaccharide)], for which, on TM6-N4 [1], the Kd came out at 1200 ± 600 nM.
Turning to `O=C(O)[C@H]1O[C@@H](O[C@H]2[C@H](O)[C@H](O)[C@H](O[C@H]3[C@H](O)[C@H](O)[C@H](O[C@H]4[C@H](O)[C@H](O)[C@H](O[C@H]5[C@H](O)[C@H](O)C(O)O[C@@H]5C(=O)O)O[C@@H]4C(=O)O)O[C@@H]3C(=O)O)O[C@@H]2C(=O)O)[C@@H](O)[C@@H](O)[C@@H]1O` (some centres unmarked) [M5, mannuronate pentasaccharide], in the experiment on TM6-N4 [2], the ΔH was -8.6 ± 1.2 kcal/mol; the TΔS is -0.6 kcal/mol; the “ΔG (binding free energy change)” value was -8.1 kcal/mol and -8.1 ± 0.1 kcal/mol.
At TM6-N4 [1], `O=C(O)[C@H]1O[C@@H](O[C@H]2[C@H](O)[C@H](O)[C@H](O[C@H]3[C@H](O)[C@H](O)[C@H](O[C@H]4[C@H](O)[C@H](O)[C@H](O[C@H]5[C@H](O)[C@H](O)[C@H](O[C@H]6[C@H](O)[C@H](O)C(O)O[C@@H]6C(=O)O)O[C@@H]5C(=O)O)O[C@@H]4C(=O)O)O[C@@H]3C(=O)O)O[C@@H]2C(=O)O)[C@@H](O)[C@@H](O)[C@@H]1O` (stereo partly drawn) [M6, beta-D-mannuronate hexasaccharide (hexamannuronate)] showed a Kd of 60 ± 60 nM.
Turning to `O=C(O)[C@H]1O[C@@H](O[C@H]2[C@H](O)[C@H](O)[C@H](O[C@H]3[C@H](O)[C@H](O)[C@H](O[C@H]4[C@H](O)[C@H](O)[C@H](O[C@H]5[C@H](O)[C@H](O)[C@H](O[C@H]6[C@H](O)[C@H](O)C(O)O[C@@H]6C(=O)O)O[C@@H]5C(=O)O)O[C@@H]4C(=O)O)O[C@@H]3C(=O)O)O[C@@H]2C(=O)O)[C@@H](O)[C@@H](O)[C@@H]1O` (some centres unmarked) [M6], in the experiment on TM6-N4 [2], the ΔH was -3.5 ± 0.3 kcal/mol; the TΔS is given as 6.4 kcal/mol; the “ΔG (binding free energy change)” value is -9.9 kcal/mol and -9.9 ± 0.1 kcal/mol.
As for `O=C(O)[C@H]1O[C@@H](O[C@H]2[C@H](O)[C@H](O)[C@H](O[C@H]3[C@H](O)[C@H](O)[C@H](O[C@H]4[C@H](O)[C@H](O)[C@H](O[C@H]5[C@H](O)[C@H](O)[C@H](O[C@H]6[C@H](O)[C@H](O)[C@H](O[C@H]7[C@H](O)[C@H](O)C(O)O[C@@H]7C(=O)O)O[C@@H]6C(=O)O)O[C@@H]5C(=O)O)O[C@@H]4C(=O)O)O[C@@H]3C(=O)O)O[C@@H]2C(=O)O)[C@@H](O)[C@@H](O)[C@@H]1O` (stereo partly drawn) [M7, beta-D-mannuronate heptasaccharide (heptamannuronate)], the affinity at TM6-N4 [1], expressed as Kd, was 200 ± 100 nM.
Turning to `O=C(O)[C@H]1O[C@@H](O[C@H]2[C@H](O)[C@H](O)[C@H](O[C@H]3[C@H](O)[C@H](O)[C@H](O[C@H]4[C@H](O)[C@H](O)[C@H](O[C@H]5[C@H](O)[C@H](O)[C@H](O[C@H]6[C@H](O)[C@H](O)[C@H](O[C@H]7[C@H](O)[C@H](O)C(O)O[C@@H]7C(=O)O)O[C@@H]6C(=O)O)O[C@@H]5C(=O)O)O[C@@H]4C(=O)O)O[C@@H]3C(=O)O)O[C@@H]2C(=O)O)[C@@H](O)[C@@H](O)[C@@H]1O` (some centres unmarked) [M7], in the experiment on TM6-N4 [2], the ΔH is -4.2 ± 0.8 kcal/mol; the TΔS is given as 5.2 kcal/mol; the “ΔG (binding free energy change)” value is -9.3 kcal/mol and -9.3 ± 0.1 kcal/mol.
